Source: ChEMBL document CHEMBL3994564 (Medchemcomm, 2016)
In brackets after ≈: the same amount, converted by molar mass.

Columns and labels:
NIH3T3 = experiment: Cytotoxic activity against mouse NIH/3T3 cells after 24 hrs by MTT assay; assay type: cell-based; conditions: NIH3T3, 24 h
Pseudomonas aeruginosa = experiment: Antibacterial activity against Pseudomonas aeruginosa ATCC 27853 after 24 hrs by MTT assay; assay type: functional; conditions: ATCC 27853, 24 h
[1] = biological target: T1, Beta-ketoacyl-[acyl-carrier-protein] synthase III (Escherichia coli K-12, UniProt P0A6R0); experiment: Inhibition of Escherichia coli FabH expressed in Escherichia coli DH10B using holo-ACP/acetyl-CoA as substrate assessed as incorporation of [3H] signal in final product preincubated with holo-ACP for 1 hr followed by acetyl-CoA addition measured after 25 mins by liquid scintillation counting method
T1 sequence (P0A6R0 whole entry): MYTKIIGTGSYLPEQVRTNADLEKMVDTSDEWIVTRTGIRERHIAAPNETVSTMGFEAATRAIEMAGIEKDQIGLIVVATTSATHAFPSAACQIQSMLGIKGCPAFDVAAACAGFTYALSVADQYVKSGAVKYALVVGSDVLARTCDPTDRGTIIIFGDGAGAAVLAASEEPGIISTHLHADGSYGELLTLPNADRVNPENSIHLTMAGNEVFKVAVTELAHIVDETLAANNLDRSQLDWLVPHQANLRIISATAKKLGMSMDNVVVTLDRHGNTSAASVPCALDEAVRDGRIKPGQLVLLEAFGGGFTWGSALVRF

Staphylococcus aureus = experiment: Antibacterial activity against Staphylococcus aureus ATCC 6538 after 24 hrs by MTT assay; assay type: functional; conditions: ATCC 6538, 24 h
Escherichia coli = experiment: Antibacterial activity against Escherichia coli ATCC 25922 after 24 hrs by MTT assay; assay type: functional; conditions: ATCC 25922, 24 h
Bacillus subtilis = experiment: Antibacterial activity against Bacillus subtilis ATCC 530 after 24 hrs by MTT assay; assay type: functional; conditions: ATCC 530, 24 h

Row | SMILES | IC50 (NIH3T3) [µM] | MIC (Pseudomonas aeruginosa) [µg/mL] | IC50 [1] [µM] | MIC (Staphylococcus aureus) [µg/mL] | MIC (Escherichia coli) [µg/mL] | MIC (Bacillus subtilis) [µg/mL]
1 | O=C(N/N=C/c1ccc(C(F)(F)F)cc1)c1ccc2c(c1)OCCCO2 | 104 | 12.5 (≈ 34.3 µM) | 12.4 | 12.5 (≈ 34.3 µM) | 25 (≈ 68.6 µM) | 25 (≈ 68.6 µM)
2 | O=C(N/N=C/c1ccc(O)c([N+](=O)[O-])c1)c1ccc2c(c1)OCCCO2 | 198 | 12.5 (≈ 35 µM) | 8.9 | 25 (≈ 70 µM) | 6.25 (≈ 17.5 µM) | 12.5 (≈ 35 µM)
3 | O=C(N/N=C/c1cc([N+](=O)[O-])ccc1Cl)c1ccc2c(c1)OCCCO2 | 172 | 3.13 (≈ 8.33 µM) | 3.9 | 3.13 (≈ 8.33 µM) | 3.13 (≈ 8.33 µM) | 6.25 (≈ 16.6 µM)
4 | COc1ccc(/C=N/NC(=O)c2ccc3c(c2)OCCCO3)cc1 | 132 | 12.5 (≈ 38.3 µM) | 24.1 | 25 (≈ 76.6 µM) | 25 (≈ 76.6 µM) | 50 (≈ 153 µM)
5 | O=C(N/N=C/c1cc([N+](=O)[O-])ccc1O)c1ccc2c(c1)OCCCO2 | 157 | 3.13 (≈ 8.76 µM) | 3.5 | 6.25 (≈ 17.5 µM) | 6.25 (≈ 17.5 µM) | 3.13 (≈ 8.76 µM)
6 | O=C(N/N=C/c1ccccc1Cl)c1ccc2c(c1)OCCCO2 |  | 50 (≈ 151 µM) |  | 50 (≈ 151 µM) | 25 (≈ 75.6 µM) | > 100
7 | O=C(N/N=C/c1ccc(I)cc1)c1ccc2c(c1)OCCCO2 | 201 | 25 (≈ 59.2 µM) | 6.9 | 6.25 (≈ 14.8 µM) | 25 (≈ 59.2 µM) | 12.5 (≈ 29.6 µM)
8 | O=C(N/N=C/c1ccc(F)c([N+](=O)[O-])c1)c1ccc2c(c1)OCCCO2 | 131 | 6.25 (≈ 17.4 µM) | 5.1 | 6.25 (≈ 17.4 µM) | 12.5 (≈ 34.8 µM) | 6.25 (≈ 17.4 µM)
9 | O=Cc1ccccc1/C=N/NC(=O)c1ccc2c(c1)OCCCO2 |  | 25 (≈ 77.1 µM) |  | 25 (≈ 77.1 µM) | 25 (≈ 77.1 µM) | 50 (≈ 154 µM)
10 | CN(C)c1ccc(/C=N/NC(=O)c2ccc3c(c2)OCCCO3)c(O)c1 | 203 | 12.5 (≈ 35.2 µM) | 6.7 | 25 (≈ 70.3 µM) | 12.5 (≈ 35.2 µM) | 50 (≈ 141 µM)
11 | COc1cc(/C=N/NC(=O)c2ccc3c(c2)OCCCO3)cc(OC)c1O | 147 | 6.25 (≈ 16.8 µM) | 3.9 | 6.25 (≈ 16.8 µM) | 3.13 (≈ 8.41 µM) | 3.13 (≈ 8.41 µM)
12 | O=C(N/N=C/c1cccs1)c1ccc2c(c1)OCCCO2 |  | > 100 |  | > 100 | > 100 | > 100
13 | O=C(N/N=C/c1ccc(Cl)cc1Cl)c1ccc2c(c1)OCCCO2 | 198 | 6.25 (≈ 17.1 µM) | 4.3 | 6.25 (≈ 17.1 µM) | 6.25 (≈ 17.1 µM) | 12.5 (≈ 34.2 µM)
14 | O=C(N/N=C/c1cccc2ccccc12)c1ccc2c(c1)OCCCO2 | 130 | 6.25 (≈ 18 µM) | 5.2 | 6.25 (≈ 18 µM) | 3.13 (≈ 9.04 µM) | 6.25 (≈ 18 µM)
15 | Cc1ccccc1/C=N/NC(=O)c1ccc2c(c1)OCCCO2 |  | 50 (≈ 161 µM) |  | > 100 | > 100 | > 100
16 | O=C(N/N=C/c1ccc(O)cc1)c1ccc2c(c1)OCCCO2 | 178 | 25 (≈ 80 µM) | 38.7 | 12.5 (≈ 40 µM) | 50 (≈ 160 µM) | 25 (≈ 80 µM)
17 | Cc1cccc(/C=N/NC(=O)c2ccc3c(c2)OCCCO3)c1 |  | 25 (≈ 80.6 µM) |  | > 100 | 50 (≈ 161 µM) | 50 (≈ 161 µM)
18 | O=C(N/N=C/C=C/c1ccccc1)c1ccc2c(c1)OCCCO2 |  | 25 (≈ 77.6 µM) |  | > 100 | 50 (≈ 155 µM) | 50 (≈ 155 µM)
19 | O=C(N/N=C/c1ccc(O)c(O)c1)c1ccc2c(c1)OCCCO2 | 102 | 12.5 (≈ 38.1 µM) | 7.8 | 25 (≈ 76.1 µM) | 12.5 (≈ 38.1 µM) | 25 (≈ 76.1 µM)

Row | SMILES | IC50 (NIH3T3) [µM] | MIC (Pseudomonas aeruginosa) [µg/mL] | IC50 [1] [µM] | MIC (Staphylococcus aureus) [µg/mL] | MIC (Escherichia coli) [µg/mL] | MIC (Bacillus subtilis) [µg/mL]
20 | O=C(N/N=C/c1cc([N+](=O)[O-])ccc1F)c1ccc2c(c1)OCCCO2 | 168 | 12.5 (≈ 34.8 µM) | 9.5 | 12.5 (≈ 34.8 µM) | 6.25 (≈ 17.4 µM) | 12.5 (≈ 34.8 µM)
21 | COc1ccc(/C=N/NC(=O)c2ccc3c(c2)OCCCO3)cc1OC | 126 | 3.13 (≈ 8.78 µM) | 4.1 | 6.25 (≈ 17.5 µM) | 3.13 (≈ 8.78 µM) | 3.13 (≈ 8.78 µM)
22 | O=C(N/N=C/c1ccccc1)c1ccc2c(c1)OCCCO2 |  | 50 (≈ 169 µM) |  | > 100 | 50 (≈ 169 µM) | > 100
23 | O=C(N/N=C/c1ccc([N+](=O)[O-])cc1)c1ccc2c(c1)OCCCO2 | 185 | 25 (≈ 73.2 µM) | 17.6 | 50 (≈ 146 µM) | 25 (≈ 73.2 µM) | 25 (≈ 73.2 µM)
24 | O=C(N/N=C/c1cc(Cl)ccc1O)c1ccc2c(c1)OCCCO2 | 111 | 25 (≈ 72.1 µM) | 13.2 | 50 (≈ 144 µM) | 12.5 (≈ 36 µM) | 25 (≈ 72.1 µM)
25 | O=C(N/N=C/c1cc(Cl)cc(Cl)c1O)c1ccc2c(c1)OCCCO2 | 184 | 6.25 (≈ 16.4 µM) | 5.4 | 12.5 (≈ 32.8 µM) | 12.5 (≈ 32.8 µM) | 6.25 (≈ 16.4 µM)
26 | O=C(N/N=C/c1ccccc1Br)c1ccc2c(c1)OCCCO2 |  | 25 (≈ 66.6 µM) |  | 50 (≈ 133 µM) | 50 (≈ 133 µM) | 25 (≈ 66.6 µM)
27 | O=C(N/N=C/c1ccc(F)cc1)c1ccc2c(c1)OCCCO2 | 126 | 25 (≈ 79.5 µM) | 32.5 | 25 (≈ 79.5 µM) | 12.5 (≈ 39.8 µM) | 50 (≈ 159 µM)
28 | Cc1ccc(/C=N/NC(=O)c2ccc3c(c2)OCCCO3)cc1 |  | 50 (≈ 161 µM) |  | > 100 | 50 (≈ 161 µM) | 50 (≈ 161 µM)
29 | O=C(N/N=C/c1ccc(Cl)c([N+](=O)[O-])c1)c1ccc2c(c1)OCCCO2 | 147 | 6.25 (≈ 16.6 µM) | 4.4 | 6.25 (≈ 16.6 µM) | 3.13 (≈ 8.33 µM) | 3.13 (≈ 8.33 µM)
30 | C(=N\C1CCCCC1)/c1ccc2c(c1)OCCCO2 |  |  | 1.6 |  |  | 
31 | CN(C)c1ccc(/C=N/NC(=O)c2ccc3c(c2)OCCCO3)cc1 | 135 | 12.5 (≈ 36.8 µM) | 7.2 | 6.25 (≈ 18.4 µM) | 6.25 (≈ 18.4 µM) | 6.25 (≈ 18.4 µM)
32 | COc1cc(/C=N/NC(=O)c2ccc3c(c2)OCCCO3)cc(OC)c1OC | 120 | 3.13 (≈ 8.1 µM) | 2 | 3.13 (≈ 8.1 µM) | 1.56 (≈ 4.04 µM) | 1.56 (≈ 4.04 µM)
33 | Cc1ccc(/C=N/NC(=O)c2ccc3c(c2)OCCCO3)o1 |  | > 100 |  | > 100 | > 100 | > 100
34 | O=C(N/N=C/c1c(F)cccc1Cl)c1ccc2c(c1)OCCCO2 | 164 | 25 (≈ 71.7 µM) | 20.6 | 25 (≈ 71.7 µM) | 12.5 (≈ 35.8 µM) | 50 (≈ 143 µM)
35 | O=C(N/N=C/c1ccc2ccccc2c1)c1ccc2c(c1)OCCCO2 | 114 | 3.13 (≈ 9.04 µM) | 4.6 | 6.25 (≈ 18 µM) | 6.25 (≈ 18 µM) | 3.13 (≈ 9.04 µM)
36 | O=C(N/N=C/c1ccccc1O)c1ccc2c(c1)OCCCO2 |  | 50 (≈ 160 µM) |  | 25 (≈ 80 µM) | 50 (≈ 160 µM) | 12.5 (≈ 40 µM)
37 | O=C(N/N=C/c1ccc(-c2ccccc2)cc1)c1ccc2c(c1)OCCCO2 | 146 | 6.25 (≈ 16.8 µM) | 4.7 | 12.5 (≈ 33.6 µM) | 3.13 (≈ 8.4 µM) | 6.25 (≈ 16.8 µM)
38 | NC[C@H]1O[C@H](O[C@H]2[C@H](O)[C@@H](O[C@H]3O[C@H](CO)[C@@H](O)[C@H](N)[C@H]3O)[C@H](N)C[C@@H]2N)[C@H](N)[C@@H](O)[C@@H]1O [BEKANAMYCIN] |  | 3.13 (≈ 6.47 µM) | 5.6 | 1.56 (≈ 3.23 µM) | 3.13 (≈ 6.47 µM) | 1.56 (≈ 3.23 µM)
